According to patent publication US7183260B2, “C-terminal modified oxamyl dipeptides as inhibitors of the ICE/ced-3 family of cysteine proteases” (Idun Pharmaceuticals, Inc., priority 1998, dated 2007):
Where two headings read alike, the source gives them in different places. Where a SMILES comes first, the peptide text is derived from it. The star is where a group is joined. Cbz = O=C(OCc1ccccc1)*; CH2F = FC*

Experiments:
Format in all cases: biochemical
mICE = target: T1, mICE (Mus musculus, UniProt P29452); assay: Dissociation constant Ki and irreversible rate constant k3 for irreversible inhibitors (ICE)
T1 sequence (P29452 123-296 limits assumed): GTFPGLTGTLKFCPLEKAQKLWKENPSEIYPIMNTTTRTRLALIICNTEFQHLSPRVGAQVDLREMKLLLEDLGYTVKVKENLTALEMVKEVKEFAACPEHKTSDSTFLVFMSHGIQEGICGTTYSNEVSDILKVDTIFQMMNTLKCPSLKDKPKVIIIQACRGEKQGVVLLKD
T1 sequence (P29452 315-402 limits assumed): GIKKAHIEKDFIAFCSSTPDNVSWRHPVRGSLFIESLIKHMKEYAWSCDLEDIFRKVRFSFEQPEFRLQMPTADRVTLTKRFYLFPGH

CPP32 = target: T2, CPP32 (Homo sapiens, UniProt P42574); assay: Dissociation constant Ki and irreversible rate constant k3 for irreversible inhibitors (CPP32)
T2 sequence (P42574 29-175 limits assumed): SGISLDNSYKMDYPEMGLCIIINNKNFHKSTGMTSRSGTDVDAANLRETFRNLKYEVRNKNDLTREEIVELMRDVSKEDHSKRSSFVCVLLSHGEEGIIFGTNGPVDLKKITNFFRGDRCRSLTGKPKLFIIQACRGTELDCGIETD
T2 sequence (P42574 176-277 limits assumed): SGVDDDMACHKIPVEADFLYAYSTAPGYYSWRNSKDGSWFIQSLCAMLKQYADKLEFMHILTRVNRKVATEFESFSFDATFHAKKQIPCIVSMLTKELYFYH

MCH-2 = target: T3, MCH-2 (Homo sapiens, UniProt P55212); assay: Dissociation constant Ki and irreversible rate constant k3 for irreversible inhibitors (Mch2)
T3 sequence (P55212 24-179 limits assumed): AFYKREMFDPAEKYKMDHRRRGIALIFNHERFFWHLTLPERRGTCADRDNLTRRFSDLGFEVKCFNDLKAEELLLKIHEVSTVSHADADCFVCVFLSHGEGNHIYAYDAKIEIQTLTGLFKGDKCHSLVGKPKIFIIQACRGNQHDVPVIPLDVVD
T3 sequence (P55212 194-293 limits assumed): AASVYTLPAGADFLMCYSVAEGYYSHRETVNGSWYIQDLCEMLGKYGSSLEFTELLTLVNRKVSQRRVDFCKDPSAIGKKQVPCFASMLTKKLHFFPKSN

MCH-5 = MCH-5 (Homo sapiens, UniProt Q14790); assay: Dissociation constant Ki and irreversible rate constant k3 for irreversible inhibitors (Mch5)
MCH-5, sequence (Q14790 217-374 limits assumed, species assumed): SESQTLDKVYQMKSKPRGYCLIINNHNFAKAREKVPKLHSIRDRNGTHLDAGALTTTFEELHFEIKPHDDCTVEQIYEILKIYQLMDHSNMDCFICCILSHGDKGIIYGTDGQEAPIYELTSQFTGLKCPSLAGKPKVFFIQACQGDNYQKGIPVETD
MCH-5, sequence (Q14790 385-479 limits assumed, species assumed): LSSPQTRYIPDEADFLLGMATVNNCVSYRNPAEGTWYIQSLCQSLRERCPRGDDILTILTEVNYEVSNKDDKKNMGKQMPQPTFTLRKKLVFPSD

[1] = continuous assay 60 min, reaction initiated by adding enzyme to substrate-inhibitor mixture

| Structure (SMILES) | Ki (mICE; [1]) [nM] | Ki (CPP32; [1]) [nM] | Ki (MCH-2; [1]) [nM] | Ki (MCH-5; [1]) [nM] | mICE k3/Ki (mICE; [1]) | CPP32 k3/Ki (CPP32; [1]) | MCH-2 k3/Ki (MCH-2; [1]) | MCH-5 k3/Ki (MCH-5; [1]) | Ki (mICE) [nM] | mICE k3/Ki (mICE) | CPP32 k3/Ki (CPP32) | Ki (CPP32) [nM] | Ki (MCH-2) [nM] | MCH-2 k3/Ki (MCH-2) | Ki (MCH-5) [nM] | MCH-5 k3/Ki (MCH-5) |
| --- | --- | --- | --- | --- | --- | --- | --- | --- | --- | --- | --- | --- | --- | --- | --- | --- |
| CC(C)[C@H](NC(=O)C(=O)Nc1cccc2ccccc12)C(=O)N[C@@H](CC(=O)O)C(=O)COc1c(F)cc(F)cc1F [Example 6] | 8.8 | 39 | 42 | 5.3 | – | – | – | – | – | – | – | – | – | – | – | – |
| CC(C)[C@H](NC(=O)C(=O)Nc1ccccc1Cl)C(=O)N[C@@H](CC(=O)O)C(=O)COc1c(F)c(F)cc(F)c1F [Example 105] | 8.4 | 122 | 26 | 52 | 1,540,000 moles^−1 seconds^−1 | 96,300 moles^−1 seconds^−1 | 161,000 moles^−1 seconds^−1 | 234,000 moles^−1 seconds^−1 | – | – | – | – | – | – | – | – |
| CC(C)[C@H](NC(=O)C(=O)NC(c1ccccc1)c1ccccc1)C(=O)N[C@@H](CC(=O)O)C(=O)COc1c(F)c(F)cc(F)c1F [Example 81] | 54 | 882 | 1150 | 36 | 201,000 moles^−1 seconds^−1 | 5,380 moles^−1 seconds^−1 | 1,430 moles^−1 seconds^−1 | 48,600 moles^−1 seconds^−1 | – | – | – | – | – | – | – | – |
| C[C@H](NC(=O)C(=O)NCCc1ccccc1)C(=O)N[C@@H](CC(=O)O)C(=O)COP(=O)(c1ccccc1)c1ccccc1 [Example 72] | 12 | 94 | 26 | 8.1 | 1,230,000 moles^−1 seconds^−1 | 169,000 moles^−1 seconds^−1 | 131,000 moles^−1 seconds^−1 | 667,000 moles^−1 seconds^−1 | – | – | – | – | – | – | – | – |
| CC(C)[C@H](NC(=O)C(=O)Nc1ccccc1Cc1ccccc1)C(=O)N[C@@H](CC(=O)O)C(=O)COc1c(F)c(F)cc(F)c1F [Example 84] | 43 | 367 | 82 | 24 | 344,000 moles^−1 seconds^−1 | 54,800 moles^−1 seconds^−1 | 25,300 moles^−1 seconds^−1 | 105,000 moles^−1 seconds^−1 | – | – | – | – | – | – | – | – |
| C[C@H](NC(=O)C(=O)Nc1cccc2c1CCCC2)C(=O)N[C@@H](CC(=O)O)C(=O)COC(=O)c1c(Cl)cccc1Cl [Example 62] | 1020 | 101 | 23 | 90 | 16,900 moles^−1 seconds^−1 | 149,000 moles^−1 seconds^−1 | 126,000 moles^−1 seconds^−1 | 21,200 moles^−1 seconds^−1 | – | – | – | – | – | – | – | – |
| C[C@H](NC(=O)C(=O)NC12CC3CC(CC(C3)C1)C2)C(=O)N[C@@H](CC(=O)O)C(=O)COP(=O)(c1ccccc1)c1ccccc1 [Example 53] | – | – | – | – | – | – | – | – | 462 | 27,600 moles^−1 seconds^−1 | 149,000 moles^−1 seconds^−1 | 134 | 42 | 124,000 moles^−1 seconds^−1 | 77 | 50,400 moles^−1 seconds^−1 |
| C[C@H](NC(=O)C(=O)Nc1cc(C(C)(C)C)ccc1C(C)(C)C)C(=O)N[C@@H](CC(=O)O)C(=O)COc1c(F)c(F)cc(F)c1F [Example 40] | 45 | 63 | 15 | 10 | 195,000 moles^−1 seconds^−1 | 221,000 moles^−1 seconds^−1 | 192,000 moles^−1 seconds^−1 | 248,000 moles^−1 seconds^−1 | – | – | – | – | – | – | – | – |
| CC(C)[C@H](NC(=O)C(=O)Nc1cccc2ccccc12)C(=O)N[C@@H](CC(=O)O)C(=O)COc1ccnc(C(F)(F)F)n1 [Example 12] | 7.2 | 64 | 95 | 12 | – | – | – | – | – | – | – | – | – | – | – | – |
| C[C@H](NC(=O)C(=O)Nc1cc(C(F)(F)F)ccc1N1CCOCC1)C(=O)N[C@@H](CC(=O)O)C(=O)COP(=O)(c1ccccc1)c1ccccc1 [Example 45] | 19 | 112 | 19 | 8 | 369,000 moles^−1 seconds^−1 | 100,000 moles^−1 seconds^−1 | 98,500 moles^−1 seconds^−1 | 441,000 moles^−1 seconds^−1 | – | – | – | – | – | – | – | – |
| CC(C)[C@H](NC(=O)C(=O)Nc1ccc(F)cc1)C(=O)N[C@@H](CC(=O)O)C(=O)COc1c(F)c(F)cc(F)c1F [Example 91] | 16 | 758 | 59 | 15 | 906,000 moles^−1 seconds^−1 | 36,300 moles^−1 seconds^−1 | 121,000 moles^−1 seconds^−1 | 338,000 moles^−1 seconds^−1 | – | – | – | – | – | – | – | – |
| CC(NC(=O)C(NC(=O)OCc1ccccc1)C(C)C)C(=O)NC(CC(=O)O)C(=O)CF (stereo not drawn) [refer., Cbz-ValAlaAsp-CH2F, reference compound] (Cbz-Val-Ala-Asp-CH2F; configuration not given here) | 15 | 820 | 594 | 18 | 214,000 moles^−1 seconds^−1 | 12,200 moles^−1 seconds^−1 | 2,950 moles^−1 seconds^−1 | 83,300 moles^−1 seconds^−1 | – | – | – | – | – | – | – | – |
| CC(C)[C@H](NC(=O)C(=O)Nc1ccccc1F)C(=O)N[C@@H](CC(=O)O)C(=O)COc1c(F)c(F)cc(F)c1F [Example 90] | 147 | 2270 | 221 | 40 | 58,500 moles^−1 seconds^−1 | 5,560 moles^−1 seconds^−1 | 11,200 moles^−1 seconds^−1 | 49,600 moles^−1 seconds^−1 | – | – | – | – | – | – | – | – |
| C[C@H](NC(=O)C(=O)Nc1ccccc1-c1ccccc1)C(=O)N[C@@H](CC(=O)O)C(=O)COC(=O)c1c(Cl)cccc1Cl [Example 29] | 38 | 15 | 9 | 17 | 259,000 moles^−1 seconds^−1 | 388,000 moles^−1 seconds^−1 | 219,000 moles^−1 seconds^−1 | 125,000 moles^−1 seconds^−1 | – | – | – | – | – | – | – | – |
| C[C@H](NC(=O)C(=O)Nc1ccccc1-c1ccccc1)C(=O)N[C@@H](CC(=O)O)C(=O)COP(=O)(c1ccccc1)c1ccccc1 [Example 30] | 22 | 42 | 25 | 24 | 345,000 moles^−1 seconds^−1 | 243,000 moles^−1 seconds^−1 | 317,000 moles^−1 seconds^−1 | 207,000 moles^−1 seconds^−1 | – | – | – | – | – | – | – | – |
| CC(C)[C@H](NC(=O)C(=O)Nc1cccc2ccccc12)C(=O)N[C@@H](CC(=O)O)C(=O)COc1c(F)c(F)cc(F)c1F [Example 7] | 5.7 | 46 | 16 | 3.7 | – | – | – | – | – | – | – | – | – | – | – | – |
| CC(C)[C@H](NC(=O)C(=O)Nc1cccc2ccccc12)C(=O)N[C@@H](CC(=O)O)C(=O)COc1cccc2ccccc12 [Example 18] | 33 | 46 | 20 | 10 | 254,000 moles^−1 seconds^−1 | 180,000 moles^−1 seconds^−1 | 83,700 moles^−1 seconds^−1 | 177,000 moles^−1 seconds^−1 | – | – | – | – | – | – | – | – |
